Source: ChEMBL document CHEMBL1201862, “PubChem BioAssay data set” (2004)
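Exposure lasted 48 hours, with cells grown in 96-well plates and compounds tested at five concentrations. The concentration for 50% growth inhibition is given as GI50.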 Activity calls are given as the source filed them. Cut-off read from the data, not from the text of the source: active = GI50 up to about 1.1 µM and inactive = higher.

Tests used:
Test in all cases: DTP human tumour cell line panel, 48 h
RPMI-8226 = test system: RPMI-8226
HCC 2998 = test system: HCC 2998
SW-620 = test system: SW-620
K562 = test system: K562
UACC-257 = test system: UACC-257
OVCAR-4 = test system: OVCAR-4
786-0 = test system: 786-0
HCT-116 = test system: HCT-116
SK-MEL-28 = test system: SK-MEL-28
A498 = test system: A498
LOX IMVI = test system: LOX IMVI
ACHN = test system: ACHN
SNB-19 = test system: SNB-19
CAKI-1 = test system: CAKI-1
SK-MEL-5 = test system: SK-MEL-5
DU-145 = test system: DU-145
Hs-578T = test system: Hs-578T
PC-3 = test system: PC-3
NCI/ADR-RES = test system: NCI/ADR-RES
MDA-N = test system: MDA-N

SMILES | GI50 (RPMI-8226) | GI50 (HCC 2998) | GI50 (SW-620) | GI50 (K562) | GI50 (UACC-257) | GI50 (OVCAR-4) | GI50 (786-0) | GI50 (HCT-116) | GI50 (SK-MEL-28) | GI50 (A498) | GI50 (LOX IMVI) | GI50 (ACHN) | GI50 (SNB-19) | GI50 (CAKI-1) | GI50 (SK-MEL-5) | GI50 (DU-145) | GI50 (Hs-578T) | GI50 (PC-3) | GI50 (NCI/ADR-RES) | GI50 (MDA-N)
CC1CCC2(OC1)OC1CC3C4CCC5CC(O)CCC5(C)C4CC(=O)OC3(C)C1C2C (stereo not given) | > 100 µM (inactive) | > 100 µM (inactive) | > 100 µM (inactive) | > 100 µM (inactive) | > 100 µM (inactive) | > 100 µM (inactive) | > 100 µM (inactive) | > 100 µM (inactive) | > 100 µM (inactive) | > 100 µM (inactive) | > 100 µM (inactive) | > 100 µM (inactive) | > 100 µM (inactive) | > 100 µM (inactive) | > 100 µM (inactive) |  |  |  |  | 
[N-]=[N+]=NI1OC(C(F)(F)F)(C(F)(F)F)c2ccccc21 | 12.1 µM (inactive) | 17.9 µM (inactive) | 19.1 µM (inactive) | 11.5 µM (inactive) | 24.5 µM (inactive) | 15.1 µM (inactive) | 15.5 µM (inactive) | 17.3 µM (inactive) | 13.9 µM (inactive) | 17 µM (inactive) | 15.2 µM (inactive) | 13.9 µM (inactive) | > 100 µM (inactive) | 8.55 µM (inactive) | 1.24 µM (inactive) | 18 µM (inactive) | 12.6 µM (inactive) | 15.7 µM (inactive) | 18.6 µM (inactive) | 
Cc1cc(SCC(=O)c2ccccc2)nc2ccccc12 | > 100 µM (inactive) |  | > 100 µM (inactive) | > 100 µM (inactive) | > 100 µM (inactive) | > 100 µM (inactive) | > 100 µM (inactive) | > 100 µM (inactive) | > 100 µM (inactive) | > 100 µM (inactive) | > 100 µM (inactive) | > 100 µM (inactive) | > 100 µM (inactive) | > 100 µM (inactive) | > 100 µM (inactive) | > 100 µM (inactive) | < 0.01 µM (active) | > 100 µM (inactive) | > 100 µM (inactive) | 
O=C(O)c1cc2ccccc2c(/N=N/c2ccc(S(=O)(=O)Nc3ncccn3)cc2)c1O | > 100 µM (inactive) | > 100 µM (inactive) | > 100 µM (inactive) | > 100 µM (inactive) | > 100 µM (inactive) | > 100 µM (inactive) | > 100 µM (inactive) | > 100 µM (inactive) | > 100 µM (inactive) |  |  | > 100 µM (inactive) | > 100 µM (inactive) | > 100 µM (inactive) | > 100 µM (inactive) |  | > 100 µM (inactive) | > 100 µM (inactive) | > 100 µM (inactive) | 
O=c1oc2cc(O)ccc2cc1-c1nc2ccccc2s1 | 11.5 µM (inactive) | 27.5 µM (inactive) | 12.2 µM (inactive) | 7.41 µM (inactive) | 22.6 µM (inactive) | 28.2 µM (inactive) | 22.8 µM (inactive) | 21.8 µM (inactive) | 0.0656 µM (active) | 19.6 µM (inactive) | 25.9 µM (inactive) | 22.5 µM (inactive) | 30.8 µM (inactive) | 22.9 µM (inactive) | 11.1 µM (inactive) | 29.2 µM (inactive) |  | 22.8 µM (inactive) | 18.7 µM (inactive) | 19.1 µM (inactive)
CCOc1cc2c(c(OCC)c1O)CC[C@@H]1[C@@H]2CC[C@]2(C)[C@@H](O)CC[C@@H]12 | 2.74 µM (inactive) |  | 1.22 µM (inactive) | 0.329 µM (active) |  | 51.8 µM (inactive) | 2.45 µM (inactive) |  |  | 5.21 µM (inactive) | 2.23 µM (inactive) | 1.11 µM (active) | 1.25 µM (inactive) | 0.746 µM (active) | 1.21 µM (inactive) |  | 4.68 µM (inactive) |  | 3.23 µM (inactive) | 0.234 µM (active)
CCOC(=O)C1CCCc2sc(N)c(C#N)c21 (stereo not given) | > 100 µM (inactive) | > 100 µM (inactive) | > 100 µM (inactive) | > 100 µM (inactive) | > 100 µM (inactive) |  | > 100 µM (inactive) | > 100 µM (inactive) | > 100 µM (inactive) | > 100 µM (inactive) |  | > 100 µM (inactive) | > 100 µM (inactive) |  | > 100 µM (inactive) |  | > 100 µM (inactive) | > 100 µM (inactive) |  | > 100 µM (inactive)
FC1=C2C3CCC(C3)C2C1(F)F (stereo not given) | > 100 µM (inactive) | > 100 µM (inactive) | > 100 µM (inactive) | > 100 µM (inactive) | > 100 µM (inactive) | > 100 µM (inactive) | > 100 µM (inactive) | > 100 µM (inactive) | > 100 µM (inactive) | > 100 µM (inactive) | > 100 µM (inactive) | > 100 µM (inactive) | > 100 µM (inactive) | > 100 µM (inactive) | > 100 µM (inactive) | > 100 µM (inactive) |  | > 100 µM (inactive) | > 100 µM (inactive) | > 100 µM (inactive)
